Assay results published in patent US9169254B2, “Spiroimidazolone derivative” (Chugai Seiyaku Kabushiki Kaisha, priority 2009, dated 2015).

Biological target: T1, human PTH1 receptor (Homo sapiens, UniProt Q03431)
T1 sequence (Q03431 27-593): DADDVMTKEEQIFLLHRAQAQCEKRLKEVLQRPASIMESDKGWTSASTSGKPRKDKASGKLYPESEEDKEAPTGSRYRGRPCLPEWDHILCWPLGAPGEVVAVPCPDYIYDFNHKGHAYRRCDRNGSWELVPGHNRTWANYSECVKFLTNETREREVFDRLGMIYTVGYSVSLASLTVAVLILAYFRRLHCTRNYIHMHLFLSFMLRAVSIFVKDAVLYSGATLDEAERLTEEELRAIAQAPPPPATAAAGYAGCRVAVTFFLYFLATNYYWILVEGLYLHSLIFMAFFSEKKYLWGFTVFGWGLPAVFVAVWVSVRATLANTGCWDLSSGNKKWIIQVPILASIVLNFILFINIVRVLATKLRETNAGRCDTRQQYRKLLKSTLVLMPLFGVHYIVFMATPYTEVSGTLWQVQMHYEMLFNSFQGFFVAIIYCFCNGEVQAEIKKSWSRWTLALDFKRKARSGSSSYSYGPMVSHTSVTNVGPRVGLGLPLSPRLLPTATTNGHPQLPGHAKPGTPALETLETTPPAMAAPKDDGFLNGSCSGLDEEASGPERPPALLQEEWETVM
Test: In vitro cAMP signal activity in HKRK-B7 cells (LLC-PK1 cells overexpressing the human PTH1 receptor)
Format: cell-based
Settings: HKRK-B7 cells, compound at 1×10^−3 M

[1] = cAMP produced as percentage of that produced by hPTH(1-34) at 100 nM

Row | SMILES | cAMP production activity (%) [1] | cAMP production activity (%) ([…], 0.1 µM)
1 | O=C1NC(CCCCCCCC(F)(F)C(F)(F)F)=NC12CCN(S(=O)(=O)/C=C/c1cccc3c1ccn3C[C@H](O)CO)CC2 [Compound 623, 8-{(E)-2-[1-((S)-2,3-Dihydroxy-propyl)-1H-indol-4-yl]-ethenesulfonyl}-2-(8,8,9,9,9-pentafluoro-nonyl)-1,3,8-triaza-spiro[4.5]dec-1-en-4-one] | 123% | 
2 | CN(C)C(=O)Nc1ccc(CCS(=O)(=O)N2CCC3(CC2)N=C(C2CCCCC2)NC3=O)c(C(F)(F)F)c1 [Compound 273, 3-{4-[2-(2-cyclohexyl-4-oxo-1,3,8-triaza-spiro[4.5]dec-1-ene-8-sulfonyl)-ethyl]-3-trifluoromethyl-phenyl}-1,1-dimethyl-urea] | 55% | 
3 | Cc1cc(C(=O)N(C)C)ccc1CCS(=O)(=O)N1CCC2(CC1)N=C(/C=C/c1cccc(C(F)(F)F)c1)NC2=O [Compound 892, 3,N,N-trimethyl-4-(2-{4-oxo-2-[(E)-2-(3-trifluoromethyl-phenyl)-vinyl]-1,3,8-triaza-spiro[4.5]dec-1-ene-8-sulfonyl}-ethyl)-benzamide] | 51% | 
4 | Cc1cc(N(C)C(N)=O)ccc1CCS(=O)(=O)N1CCC2(CC1)N=C(c1cccc(OC(F)(F)F)c1)NC2=O [Compound 301, 1-methyl-1-(3-methyl-4-{2-[4-oxo-2-(3-trifluoromethoxy-phenyl)-1,3,8-triaza-spiro[4.5]dec-1-ene-8-sulfonyl]-ethyl}-phenyl)-urea] | 72% | 
5 | Cc1cc(C(=O)N2CCC(O)(CF)CC2)cc(C)c1/C=C/S(=O)(=O)N1CCC2(CC1)N=C(c1ccc(OC(F)(F)F)cc1)NC2=O [Compound 1269, 8-{(E)-2-[4-(4-fluoromethyl-4-hydroxy-piperidine-1-carbonyl)-2,6-dimethyl-phenyl]-ethenesulfonyl}-2-(4-trifluoromethoxy-phenyl)-1,3,8-triaza-spiro[4.5]dec-1-en-4-one] | 92% | 
6 | Cc1cc(C(=O)O)cc(C)c1CCS(=O)(=O)N1CCC2(CC1)N=C(C1CCC(CCC(F)(F)F)CC1)NC2=O (stereo not drawn) [Compound 768, 3,5-dimethyl-4-(2-{4-oxo-2-[4-(3,3,3-trifluoro-propyl)-cyclohexyl]-1,3,8-triaza-spiro[4.5]dec-1-ene-8-sulfonyl}-ethyl)-benzoic acid] | 79% | 
7 | Cc1cc(NS(C)(=O)=O)cc(C)c1/C=C/S(=O)(=O)N1CCC2(CC1)N=C(c1cccc(OC(F)(F)F)c1)NC2=O [Compound 229, N-(3,5-dimethyl-4-{(E)-2-[4-oxo-2-(3-trifluoromethoxy-phenyl)-1,3,8-triaza-spiro[4.5]dec-1-ene-8-sulfonyl]-vinyl}-phenyl)-methanesulfonamide] | 68% | 
8 | CC[C@H]1CC[C@H](C2=NC3(CCN(S(=O)(=O)CCc4ccc(N5C(=O)NC(=O)C5C)cc4C)CC3)C(=O)N2)CC1 (stereo partly drawn) [Compound 879, 1-(4-{2-[2-(4-ethyl-cyclohexyl)-4-oxo-1,3,8-triaza-spiro[4.5]dec-1-ene-8-sulfonyl]-ethyl}-3-methyl-phenyl)-5-methyl-imidazolidine-2,4-dione] | 70% | 
9 | CN1CCN(C(=O)NCc2ccc(/C=C/S(=O)(=O)N3CCC4(CC3)N=C(C3CCCCC3)NC4=O)cc2)CC1 [Compound 567, 4-methyl-piperazine-1-carboxylic acid 4-[(E)-2-(2-cyclohexyl-4-oxo-1,3,8-triaza-spiro[4.5]dec-1-ene-8-sulfonyl)-vinyl]-benzylamide] | 24% | 
10 | O=C1Cc2c(/C=C/S(=O)(=O)N3CCC4(CC3)N=C(C3CCCCC3)NC4=O)cccc2N1 [Compound 634, 2-cyclohexyl-8-[(E)-2-(2-oxo-2,3-dihydro-1H-indol-4-yl)-ethenesulfonyl]-1,3,8-triaza-spiro[4.5]dec-1-en-4-one] | 29% | 
11 | CCC1CCC(C2=NC3(CCN(S(=O)(=O)CCc4ccc(C(=O)N5CCN(C6COC6)CC5)cc4C)CC3)C(=O)N2)CC1 (stereo not drawn) [Compound 976, 2-(4-ethyl-cyclohexyl)-8-{2-[2-methyl-4-(4-oxetan-3-yl-piperazine-1-carbonyl)-phenyl]-ethanesulfonyl}-1,3,8-triaza-spiro[4.5]dec-1-en-4-one] | 73% | 
12 | Nc1cccc(CCCS(=O)(=O)N2CCC3(CC2)N=C(C2CCCCC2)NC3=O)c1 [Compound 328, 8-[3-(3-Amino-phenyl)-propane-1-sulfonyl]-2-cyclohexyl-1,3,8-triaza-spiro[4.5]dec-1-en-4-one] | 41% | 
13 | Cc1cc(N(C)C(N)=O)cc(C)c1CC[S@TB3](=O)(=O)N1CCC2(CC1)N=C(C1CC(C(F)(F)F)CC(C(F)(F)F)C1)NC2=O [Compound 1138, 1-(4-{2-[2-((1R,3R,5S)-3,5-bis-trifluoromethyl-cyclohexyl)-4-oxo-1,3,8-triaza-spiro[4.5]dec-1-ene-8-sulfonyl]-ethyl}-3,5-dimethyl-phenyl)-1-methyl-urea] | 77% | 
14 | CNc1cc(C)c(/C=C/S(=O)(=O)N2CCC3(CC2)N=C(CCCCCCCC(F)(F)C(F)(F)F)NC3=O)c(C)c1 [Compound 691, 8-[(E)-2-(2,6-Dimethyl-4-methylamino-phenyl)-ethenesulfonyl]-2-(8,8,9,9,9-pentafluoro-nonyl)-1,3,8-triaza-spiro[4.5]dec-1-en-4-one] | 69% | 
15 | Cc1cc(C(=O)N(C)C2CCN(C)CC2)cc(C)c1/C=C/S(=O)(=O)N1CCC2(CC1)N=C(c1cccc(C(F)(F)F)c1)NC2=O [Compound 393, 3,5,N-trimethyl-N-(1-methyl-piperidin-4-yl)-4-{(E)-2-[4-oxo-2-(3-trifluoromethyl-phenyl)-1,3,8-triaza-spiro[4.5]dec-1-ene-8-sulfonyl]-vinyl}-benzamide] | 44% | 
16 | CC(=O)Nc1ccc(-c2ccc(S(=O)(=O)N3CCC4(CC3)N=C(C3CCCCC3)NC4=O)s2)c(C)c1 [Compound 332, N-{4-[5-(2-cyclohexyl-4-oxo-1,3,8-triaza-spiro[4.5]dec-1-ene-8-sulfonyl)-thiophen-2-yl]-3-methyl-phenyl}-acetamide] | 90% | 
17 | Cc1cc(NCCO)ccc1CCS(=O)(=O)N1CCC2(CC1)N=C(c1cccc(C(F)(F)F)c1)NC2=O [Compound 160, 8-{2-[4-(2-hydroxy-ethylamino)-2-methyl-phenyl]-ethanesulfonyl}-2-(3-trifluoromethyl-phenyl)-1,3,8-triaza-spiro[4.5]dec-1-en-4-one] | 65% | 
18 | Cc1cc(Nc2nccs2)cc(C)c1/C=C/S(=O)(=O)N1CCC2(CC1)N=C(C1CCCCC1)NC2=O [Compound 573, 2-cyclohexyl-8-{(E)-2-[2,6-dimethyl-4-(thiazol-2-ylamino)-phenyl]-ethenesulfonyl}-1,3,8-triaza-spiro[4.5]dec-1-en-4-one] | 35% | 
19 | Cc1cc(N2CCOC2=O)ccc1CCS(=O)(=O)N1CCC2(CC1)N=C(C1CCC(C)CC1)NC2=O (stereo not drawn) [Compound 865, 2-(4-methyl-cyclohexyl)-8-{2-[2-methyl-4-(2-oxo-oxazolidin-3-yl)-phenyl]-ethanesulfonyl}-1,3,8-triaza-spiro[4.5]dec-1-en-4-one] | 8.9% | 
20 | CN(C)C(=O)CNc1ccc(CCS(=O)(=O)N2CCC3(CC2)N=C(C2CCCCC2)NC3=O)c(C(F)(F)F)c1 [Compound 270, 2-{4-[2-(2-cyclohexyl-4-oxo-1,3,8-triaza-spiro[4.5]dec-1-ene-8-sulfonyl)-ethyl]-3-trifluoromethyl-phenylamino}-N,N-dimethyl-acetamide] | 55% | 
21 | Cc1cc(C(=O)N(C)C)ccc1CCS(=O)(=O)N1CCC2(CC1)N=C(c1ccc(Cl)cc1Cl)NC2=O [Compound 73, 4-{2-[2-(2,4-Dichloro-phenyl)-4-oxo-1,3,8-triaza-spiro[4.5]dec-1-ene-8-sulfonyl]-ethyl}-3,N,N-trimethyl-benzamide] | 66% | 
22 | Cc1cc(NCC(N)=O)ccc1CCS(=O)(=O)N1CCC2(CC1)N=C(c1cccc(OC(F)(F)F)c1)NC2=O [Compound 847, 2-(3-methyl-4-{2-[4-oxo-2-(3-trifluoromethoxy-phenyl)-1,3,8-triaza-spiro[4.5]dec-1-ene-8-sulfonyl]-ethyl}-phenylamino)-acetamide] | 71% | 
23 | Cc1cc2ccc1CCS(=O)(=O)N1CCC3(CC1)N=C(NC3=O)c1cc(cc(C(F)(F)F)c1)OCCC/C=C/COCCN(C)C2=O [Compound 1436] | 54% | 
24 | CNN(C)C(=O)c1cc(C)c(CCS(=O)(=O)N2CCC3(CC2)N=C(C2CCC(CCC(F)(F)F)CC2)NC3=O)c(C)c1 (stereo not drawn) [Compound 888, 3,5-Dimethyl-4-(2-{4-oxo-2-[4-(3,3,3-trifluoro-propyl)-cyclohexyl]-1,3,8-triaza-spiro[4.5]dec-1-ene-8-sulfonyl}-ethyl)-benzoic acid N,N′-dimethyl-hydrazide] |  | 86%
